Assay results taken from ChEMBL document CHEMBL4421721, “Use of dynamin ring stabilizers” (2012).
One block for each molecule: values may come before it. Calls of active or inactive are those of the source. The rule behind the calls is not given here.

Experiments:
[1] = Inhibition of full-length native sheep brain dynamin 1 assessed as reduction in PS liposomes-induced GTPase activity using 20 nM full-length dynamin 1; set-up: species or system Ovis aries
Dynamin-1 (Homo sapiens) = target: T1, Dynamin-1 (Homo sapiens) (UniProt Q05193); assay: Ring stabilizer activity at recombinant dynamin 1 dimeric GG2 form (unknown origin) assessed as stimulation of GTPase activity using 200 to 1000 nM full-length dynamin
T1 sequence (whole entry): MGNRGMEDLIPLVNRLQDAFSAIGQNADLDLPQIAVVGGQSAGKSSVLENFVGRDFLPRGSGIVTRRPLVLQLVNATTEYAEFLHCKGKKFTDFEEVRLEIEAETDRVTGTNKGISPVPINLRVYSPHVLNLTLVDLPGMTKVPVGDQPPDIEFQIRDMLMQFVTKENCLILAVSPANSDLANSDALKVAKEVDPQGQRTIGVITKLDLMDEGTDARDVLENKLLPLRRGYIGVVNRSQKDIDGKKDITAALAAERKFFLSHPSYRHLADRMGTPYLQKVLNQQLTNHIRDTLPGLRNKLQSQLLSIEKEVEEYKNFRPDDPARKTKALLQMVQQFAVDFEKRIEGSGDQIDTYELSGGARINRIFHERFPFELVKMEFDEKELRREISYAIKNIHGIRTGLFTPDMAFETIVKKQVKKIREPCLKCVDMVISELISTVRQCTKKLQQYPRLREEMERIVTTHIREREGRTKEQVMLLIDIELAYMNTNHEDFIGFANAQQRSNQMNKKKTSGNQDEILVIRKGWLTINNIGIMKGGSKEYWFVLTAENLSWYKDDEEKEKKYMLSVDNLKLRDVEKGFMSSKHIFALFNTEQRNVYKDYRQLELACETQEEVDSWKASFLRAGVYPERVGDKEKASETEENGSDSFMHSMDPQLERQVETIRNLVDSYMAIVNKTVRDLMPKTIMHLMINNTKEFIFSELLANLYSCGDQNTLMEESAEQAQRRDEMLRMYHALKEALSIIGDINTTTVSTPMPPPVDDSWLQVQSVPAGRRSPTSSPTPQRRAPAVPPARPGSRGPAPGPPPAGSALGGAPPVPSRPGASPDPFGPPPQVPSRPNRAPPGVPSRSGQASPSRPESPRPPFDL

[2] = (§1) Ring stabilizer activity at full-length native sheep brain dynamin 1 assessed as stimulation of GTPase activity in absence of PS liposomes; set-up: species or system Ovis aries
[3] = Inhibition of full-length native sheep brain dynamin 1 assessed as reduction in PS liposomes-induced GTPase activity in absence of tween-80 using 7 nM full-length dynamin 1; set-up: species or system Ovis aries
[4] = Inhibition of full-length native sheep brain dynamin 1 assessed as reduction in PS liposomes-induced GTPase activity in presence of tween-80 using 7 nM full-length dynamin 1; set-up: species or system Ovis aries
[5] = Ring stabilizer activity at full-length native sheep brain dynamin 1 assessed as stimulation of GTPase activity in absence of PS liposomes using 200 nM full-length dynamin 1; set-up: species or system Ovis aries
Ovis aries [6] = organism: Ovis aries; assay: Ring stabilizer activity at full-length native sheep brain dynamin 1 assessed as stimulation of GTPase activity in absence of PS liposomes and in presence of tween-80
Dynamin-2 (Homo sapiens) [7] = target: T2, Dynamin-2 (Homo sapiens) (UniProt P50570); assay: Inhibition of Dynamin-2 in human lymphoblasts assessed as accumulation of clathrin coated pits at the plasma membrane incubated for 30 mins by electron microscopic analysis
T2 sequence (whole entry): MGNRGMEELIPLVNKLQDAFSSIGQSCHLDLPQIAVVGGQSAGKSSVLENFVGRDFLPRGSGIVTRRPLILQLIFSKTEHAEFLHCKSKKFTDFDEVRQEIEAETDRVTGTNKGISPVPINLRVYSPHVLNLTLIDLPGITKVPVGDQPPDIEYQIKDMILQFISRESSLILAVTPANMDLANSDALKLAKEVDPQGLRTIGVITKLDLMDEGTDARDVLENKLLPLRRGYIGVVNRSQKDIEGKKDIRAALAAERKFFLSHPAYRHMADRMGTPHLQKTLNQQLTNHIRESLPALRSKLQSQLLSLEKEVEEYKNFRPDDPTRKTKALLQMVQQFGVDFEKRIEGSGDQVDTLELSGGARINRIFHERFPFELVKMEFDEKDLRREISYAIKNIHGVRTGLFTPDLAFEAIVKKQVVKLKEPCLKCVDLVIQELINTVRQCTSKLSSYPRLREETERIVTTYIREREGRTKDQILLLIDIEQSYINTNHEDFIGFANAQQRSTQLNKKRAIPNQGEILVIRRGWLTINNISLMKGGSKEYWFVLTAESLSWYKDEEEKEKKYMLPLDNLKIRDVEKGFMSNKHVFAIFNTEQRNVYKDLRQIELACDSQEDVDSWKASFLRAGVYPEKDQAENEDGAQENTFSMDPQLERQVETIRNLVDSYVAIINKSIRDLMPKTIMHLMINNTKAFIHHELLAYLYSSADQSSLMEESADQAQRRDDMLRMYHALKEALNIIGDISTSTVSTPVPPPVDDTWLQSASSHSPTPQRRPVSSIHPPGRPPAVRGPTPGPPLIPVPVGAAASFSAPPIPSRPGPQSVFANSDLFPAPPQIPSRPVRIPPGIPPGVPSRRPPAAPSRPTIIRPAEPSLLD

Ovis aries [8] = organism: Ovis aries; assay: as §1
Ovis aries [9] = organism: Ovis aries; assay: Inhibition of dis-assembly of pre-assembled full-length native sheep brain dynamin 1 pre-incubated in presence of PS liposomes followed compound addition at 5 uM and measured after 10 mins
Dynamin-2 (Homo sapiens) [10] = target: Dynamin-2 (Homo sapiens) (UniProt P50570); assay: Inhibition of Dynamin-2 in human lymphoblasts incubated for 30 mins by electron microscopic analysis

IC50 [3]: 22.1 µM
IC50 ([4]; read-out: IC50): 19.8 µM
Molecule: O=C(N/N=C/c1cccc(O)c1O)c1cc2ccccc2cc1O

inhibition (Dynamin-2 (Homo sapiens) [7]): Active
Activity (Ovis aries [8]): Active
Molecule: O=C(N/N=C/c1ccc(O)c(O)c1)c1cc2ccccc2cc1O

Activity (Ovis aries [6]): Active
inhibition (Ovis aries [9]): Active
Activity (Ovis aries [8]): inactive
Molecule: CCCCCCCCNC(=O)/C(C#N)=C/c1cn(CCCN(C)C)c2ccccc12

Activity (Ovis aries [6]): Active
Molecule: CCCCCCCCCCCCCCCCCC[N+](C)(C)C

IC50 [3]: 7.3 µM
IC50 ([4]; read-out: IC50): 200 µM
Molecule: O=C(N/N=C/c1ccc(O)cc1O)c1cc2ccccc2cc1O

inhibition (Dynamin-2 (Homo sapiens) [10]): Active
Molecule: CETRIMIDE

Continued, molecule first:

Molecule: N=c1oc2c(O)c(O)ccc2cc1C(=O)NCCCNC(=O)c1cc2ccc(O)c(O)c2oc1=N
IC50 [1]: 0.45 µM
Activity (Dynamin-1 (Homo sapiens)): inactive
EC50 [2]: 1 µM

Molecule: O=C(N/N=C/c1cc(O)c(O)c(O)c1)c1cc2ccccc2cc1O
IC50 [3]: 4.4 µM
IC50 ([4]; read-out: IC50): 468 µM

Molecule: COc1cc(/C=N/NC(=O)c2cc3ccccc3cc2O)c(O)cc1O
IC50 [3]: 3.6 µM
IC50 ([4]; read-out: IC50): 1170 µM

Molecule: N=c1oc2cc(O)c(O)cc2cc1C(=O)NCCNC(=O)c1cc2cc(O)c(O)cc2oc1=N
EC50 ([5]; read-out: EC50): 31 µM
IC50 [1]: 0.33 µM

Molecule: CCCCCCCCCCNC(=O)/C(C#N)=C/c1cn(CCN(C)C)c2ccccc12
Activity (Ovis aries [6]): Active

Molecule: O=C(N/N=C/c1cc(O)cc(O)c1)c1cc2ccccc2cc1O
IC50 [3]: 39.8 µM
IC50 [4]: Not Active

Molecule: O=C(N/N=C/c1ccc(O)c(O)c1O)c1cc2ccccc2cc1O
IC50 [3]: 3.1 µM
IC50 [4]: Not Active

Molecule: N=c1oc2c(O)cccc2cc1C(=O)NCCCNC(=O)c1cc2cccc(O)c2oc1=N
EC50 [5]: Not Active
IC50 [1]: 36.6 µM

Molecule: N=c1oc2cc(O)c(O)cc2cc1C(=O)NCCCNC(=O)c1cc2cc(O)c(O)cc2oc1=N
IC50 [1]: 0.26 µM
EC50 [2]: 4 µM

Molecule: N=c1oc2cc(O)ccc2cc1C(=O)NCCCNC(=O)c1cc2ccc(O)cc2oc1=N
EC50 ([5]; read-out: EC50): 40 µM
IC50 [1]: 17.3 µM

Molecule: CCCCCCNC(=O)/C(C#N)=C/c1c(C)n(CCCN(C)C)c2ccccc12
Activity (Ovis aries [6]): Active

Molecule: CCCCCCCCNC(=O)/C(C#N)=C/c1c(C)n(CCN(C)C)c2ccccc12
Activity (Ovis aries [6]): Active

Molecule: CCCCCCNC(=O)/C(C#N)=C/c1c(C)n(CCN(C)C)c2ccccc12
Activity (Ovis aries [6]): Active
